US20250025438A1, “Derivative of aspartic acid and use thereof in treatment of metabolic diseases such as hepatic fibrosis and non-alcoholic hepatitis” (SHENZHEN JINGTAI TECHNOLOGY CO., LTD., priority 2021, published 2025)
Where a SMILES comes first, the peptide text is derived from it.

Key:
[1] = system: IL-1β; experiment: In vitro efficacy in semi-activated LX2 cells, qPCR: IL-1β; format: cell-based; details: 48 hours, Q-PCR; for inhibition at 50 µM: Homo sapiens, LX-2, 50 µM, read-out: IL-1β mRNA inhibition rate
Description: (§1) Test compounds were added to the LX-2 cells respectively, and total RNA in the cells was extracted 48 hours later. This experiment was performed strictly in accordance with the instructions of the Total RNA Kit. The steps were as follows (note: this experiment was performed on ice throughout the entire process, and special RNase-free tips were used throughout the entire process): • 1) The 12-well cell culture plate was taken out from the incubator, the cell culture medium was discarded, the cells were washed twice with 1 mL of 1×PBS, and a negative pressure suction device was used to fully remove PBS; • 2) 350 μL of TRK Lysis Buffer mixture/well was prepared as needed (mixture preparation method: 1 mL of TRKLysis Buffer+20 μL of β-mercaptoethanol), vortexed and mixed well. 350 μL was added to each well of the 12-well cell culture plate, and allowed to stand at room temperature for 5 minutes to fully lyse the cells; • 3) 70% ethanol/well was prepared as needed, vortexed and mixed well. 350 μL was added to each well of the 12-well cell culture plate, mixed well by shaking, and transferred to the spin column (spin column+collection tube were assembled); • 4) Centrifugation was performed at 4° C., 12000 g for 60 sec. The waste liquid was discarded after centrifugation, while the spin column was kept; • 5) 500 μL of RNA Wash Buffer I was added, centrifuged at 4° C., 12000 g for 60 sec, the waste liquid was discarded after centrifugation, and the collection column was kept; • 6) 500 μL of RNA Wash Buffer II (confirmed that ethanol had been added) was added, centrifuged at 4° C., 12000 g for 60 sec, the waste liquid was discarded after centrifugation, and the collection column was kept; • 7) step 6) was repeated once again, centrifugation was performed at 4° C., 12000 g for 90 sec, the waste liquid was discarded after centrifugation, and the collection column was kept; • 8) Centrifugation was performed at 4° C., 12000 g for 120 sec to ensure that the spin column was fully dried; • 9) The dried spin column was inserted into a new 1.5 mL EP tube, and 30 μL of DEPC water was added to the membrane in the center of the spin column. It should be careful not to touch the EP tube cover in this step. It was allowed to stand at room temperature for 5 minutes to ensure that the RNA was fully dissolved in DEPC water. Centrifugation was performed at 4° C., 12000 g for 60 sec, and the EP tube was kept; • 10) NanoDrop ultra-micro-volume spectrophotometer was used to detect RNA concentration;
(§2) 5.2 Reverse transcription of RNA into cDNA: According to the instructions of PrimeScript™ RT reagent Kit (Perfect Real Time), the specific experimental steps were as follows:
(§3) 5.3 Q-PCR detection of target gene expression: According to the instructions of Power SYBR® Green PCR Master Mix, the specific operations were as follows:
(§4) After the reaction was completed, the amplification curve and dissolution curve of Q-PCR were confirmed, and the relative quantification method ([…]) was used to perform data analysis on the experimental results.
(§5) LX2 cells were passaged and plated normally. […] After 48 hours, the cells were collected, total RNA was extracted, and Q-PCR was used to detect the changes in the mRNA expression levels of liver fibrosis-related genes (ACTA2 encoding α-SMA, COL1A1 and COLIA2 encoding collagen I, COL3A1 encoding collagen III, SMAD3 encoding Smad3) and inflammation-related genes (IL1β encoding IL-1β, TNFα encoding TNFα) (for specific methods, see 5. Q-PCR detection of target gene expression as described above). α-SMA was a marker of hepatic stellate cell activation, and collagen I and collagen III were the main components of extracellular matrix deposition.

[2] = system: TNF-α; experiment: In vitro efficacy in semi-activated LX2 cells, qPCR: TNF-α; format: cell-based; details: Q-PCR; for inhibition at 50 µM: Homo sapiens, LX-2, 48 hours, read-out: TNF-α mRNA inhibition rate
Description: as §1, §2, §3, §4
(§6) LX2 cells were passaged and plated normally. After adherent growth for 12 hours, 50 µM of the test compound was added. After 48 hours, the cells were collected, total RNA was extracted, and Q-PCR was used to detect the changes in the mRNA expression levels of liver fibrosis-related genes (ACTA2 encoding α-SMA, COL1A1 and COLIA2 encoding collagen I, COL3A1 encoding collagen III, SMAD3 encoding Smad3) and inflammation-related genes (IL1β encoding IL-1β, TNFα encoding TNFα) (for specific methods, see 5. Q-PCR detection of target gene expression as described above). α-SMA was a marker of hepatic stellate cell activation, and collagen I and collagen III were the main components of extracellular matrix deposition.

[3] = system: α-SMA; experiment: In vitro efficacy in semi-activated LX2 cells, qPCR: α-SMA; format: cell-based; details: 48 hours, Q-PCR; for inhibition at 50 µM: read-out: α-SMA mRNA inhibition rate; for inhibition of the expression of α-SMA at the mRNA level: Table 2
Description: as §1, §2, §3, §4, §5

[4] = system: Smad3; experiment: In vitro efficacy in semi-activated LX2 cells, qPCR: Smad3; format: cell-based; details: 48 hours, Q-PCR; for inhibition of the expression of Smad3 at the mRNA level: Table 2; for inhibition at 50 µM: Homo sapiens, LX-2, 50 µM, read-out: Smad3 mRNA inhibition rate
Description: as §1, §2, §3, §4, §5

[5] = system: collagen I and collagen III; experiment: Semi-activated LX2 cells, qPCR: collagen I and collagen III at the mRNA level; format: cell-based; details: 48 hours, Q-PCR, Table 2
Description: as §1, §3
as §6, with “deposition. […]” for “deposition.”

[6] = system: COL1A2; experiment: In vitro efficacy in semi-activated LX2 cells, qPCR: COL1A2; format: cell-based; details: Q-PCR; for inhibition at 50 µM: Homo sapiens, LX-2, 48 hours, read-out: COL1A2 mRNA inhibition rate
Description: as §1, §2, §3, §4, §6

[7] = system: COL3A1; experiment: In vitro efficacy in semi-activated LX2 cells, qPCR: COL3A1; format: cell-based; details: 48 hours, Q-PCR; for inhibition at 50 µM: Homo sapiens, LX-2, 50 µM, read-out: COL3A1 mRNA inhibition rate
Description: as §1, §2, §3, §4, §5

[8] = system: liver fibrosis-related genes; experiment: Semi-activated LX2 cells, qPCR: liver fibrosis-related genes overall; format: cell-based; details: 48 hours, Q-PCR, Table 2
Description: as §1, §3, §6

[9] = system: COL1A1; experiment: In vitro efficacy in semi-activated LX2 cells, qPCR: COL1A1; format: cell-based; details: 48 hours, Q-PCR; for inhibition at 50 µM: Homo sapiens, LX-2, 50 µM, read-out: COL1A1 mRNA inhibition rate
Description: as §1, §2, §3, §4, §5

[10] = system: α-SMA; experiment: Semi-activated LX2 cells, Western blot: α-SMA protein; format: cell-based; details: 50-400 μM, 48 hours, FIG. 2, vs 50 μM aspartic acid
[11] = Pharmacokinetic testing in rats; format: in vivo, SD rats; details: male, SD, rat, plasma, PO 20 mg/kg
Description: Rats were used as test animals to study the pharmacokinetic behavior of the following compounds in rat plasma.
The drugs were self-made according to the examples of the present invention.
SD rats, 6-8 weeks old, 3 for each administration method/example, male.
The animals were fasted overnight, ate food 8 hours after taking the drug, and drank water freely.
Blood was collected before administration and at 5 min, 15 min, 30 min, 1 hr, 2 hr, 4 hr, 8 hr and 24 hr after administration.
The blood was placed on wet ice and centrifuged to obtain plasma sample (2000 g, 5 min at 4° C.).
The LC-MS/MS method was used to determine the blood drug concentration. The HPLC conditions were: mobile phase A: H2O-0.5% FA; mobile phase B: ACN-0.5% FA;
WinNonlin 8.2 non-compartmental model was used to estimate pharmacokinetic parameters (PK parameters, including but not limited to peak concentration (Cmax), time to peak (Tmax), terminal elimination rate (Ke), terminal elimination half-life (T1/2), area under drug-time curve (AUC), clearance rate (CL), apparent volume of distribution (Vd), mean residence time (MRT), bioavailability (F), etc.).

| Compound | inhibition of the expression of collagen I and collagen III at the mRNA level [5] | inhibition at 50 µM [1] [%] | inhibition at 50 µM [2] [%] | inhibition at 50 µM [4] [%] | inhibition at 50 µM [6] [%] | inhibition at 50 µM [7] [%] | inhibition at 50 µM [9] [%] | inhibition at 50 µM ([3]; 50 µM) [%] | also measured |
| --- | --- | --- | --- | --- | --- | --- | --- | --- | --- |
| CCOC(=O)C[C@H](N)C(=O)OCC.Cl [Compound 12] | could inhibit | – | – | – | – | – | – | – | IL-1β mRNA inhibition rate ([1]; 50 µM): E (E represented that the inhibition rate was 1% to 10%); TNF-α mRNA inhibition rate ([2]; 50 µM, 48 hours): D (D represented that the inhibition rate was 10% to 25%); α-SMA mRNA inhibition rate ([3]; 50 µM): E (E represented that the inhibition rate was 1% to 10%); Smad3 mRNA inhibition rate ([4]; 50 µM): D (D represented that the inhibition rate was 10% to 25%); inhibition of the expression of Smad3 at the mRNA level [4]: could inhibit; COL1A2 mRNA inhibition rate ([6]; 50 µM, 48 hours): E (E represented that the inhibition rate was 1% to 10%); COL3A1 mRNA inhibition rate ([7]; 50 µM): C (C represented that the inhibition rate was 25% to 50%); inhibition of the mRNA expression levels of liver fibrosis-related genes (overall) [8]: stronger effects; COL1A1 mRNA inhibition rate ([9]; 50 µM): C (C represented that the inhibition rate was 25% to 50%) |
| COC(=O)N[C@@H](CC(=O)O)C(=O)O [Compound 61, (methoxycarbonyl)-L-aspartic acid] | could inhibit | 1 to 10 | 1 to 10 | 1 to 10 | 1 to 10 | 1 to 10 | 25 to 50 | – | – |
| CC(C)(C)OC(=O)C[C@H](N)C(=O)OC(C)(C)C [Compound 41] | – | 1 to 10 | – | – | – | 1 to 10 | – | – | inhibitory effect on α-SMA protein as compared to ASP [10]: stronger inhibitory effects |
| CNC(=O)C[C@H](N)C(=O)O [Compound 33] | could inhibit | 1 to 10 | – | 1 to 10 | 1 to 10 | 1 to 10 | 25 to 50 | 25 to 50 | inhibition of the expression of α-SMA at the mRNA level [3]: could inhibit |
| CCC(=O)N[C@@H](CC(=O)O)C(=O)O [Compound 58, propionyl-L-aspartic acid] | – | 1 to 10 | – | – | 1 to 10 | 1 to 10 | – | 1 to 10 | – |
| COC(=O)[C@H](CC(=O)O)NC(=O)OC(C)(C)C [Compound 26] | could inhibit | – | 10 to 25 | 10 to 25 | 1 to 10 | 25 to 50 | 25 to 50 | 10 to 25 | inhibition of the expression of α-SMA at the mRNA level [3]: could inhibit; inhibition of the expression of Smad3 at the mRNA level [4]: could inhibit; inhibition of the mRNA expression levels of liver fibrosis-related genes (overall) [8]: stronger effects |
| NCC(=O)N[C@@H](CC(=O)O)C(=O)O [Compound 28] (H-Gly-Asp-OH) | could inhibit | 10 to 25 | 1 to 10 | 10 to 25 | 1 to 10 | 10 to 25 | 10 to 25 | 10 to 25 | inhibition of the expression of α-SMA at the mRNA level [3]: could inhibit; inhibition of the expression of Smad3 at the mRNA level [4]: could inhibit |
| C=CCOC(=O)[C@H](CC(=O)O)NC(=O)OCC1c2ccccc2-c2ccccc21 [Compound 10] | could inhibit | 1 to 10 | 10 to 25 | 1 to 10 | 1 to 10 | 10 to 25 | 1 to 10 | 1 to 10 | – |
| CC(=O)N[C@@H](CC(=O)O)C(=O)O [Compound 30] | could inhibit | 10 to 25 | – | – | 1 to 10 | – | 25 to 50 | 1 to 10 | – |
| N[C@@H](CC(=O)OC1CCCCC1)C(=O)O [Compound 23] | – | 1 to 10 | 1 to 10 | 1 to 10 | 1 to 10 | 1 to 10 | 1 to 10 | – | – |
| CC(C)(C)OC(=O)C[C@H](N)C(=O)O [Compound 13] | – | 1 to 10 | 1 to 10 | – | 1 to 10 | – | – | 1 to 10 | – |
| N[C@@H](CC(=O)O)C(=O)O [Aspartic acid, aspartic acid] | – | – | – | – | – | – | – | – | AUC(0-t) [11]: 26700 ng·h/mL; Tmax [11]: 24 h; Cmax ([11]; read-out: Cmax): 1960 ng/mL |
| O=C(O)C[C@H](NC(=O)OCc1ccccc1)C(=O)O [Compound 2] | could inhibit | 1 to 10 | 10 to 25 | 1 to 10 | 1 to 10 | 10 to 25 | 25 to 50 | 1 to 10 | – |
| N[C@@H](CC(=O)O)C(=O)N[C@@H](Cc1ccccc1)C(=O)O [Compound 39] (H-Asp-Phe-OH) | – | – | 1 to 10 | – | 1 to 10 | 1 to 10 | – | – | – |
